Assays:
[1] = tested on: VEGF-induced HUVEC tube formation; assay: VEGF-induced HUVEC tube formation assay; format: cell-based, human; settings: DAS equivalent dose 0.05 μM, 20 ng/mL VEGF165, 4 h
[2] = tested on: VEGF-stimulated human umbilical vein endothelial cells (HUVECs); assay: MTT cell viability of VEGF-stimulated HUVECs (dasatinib vs Di-DAS); format: cell-based; settings: HUVEC, 20 ng/mL VEGF165, 48 h, read-out: 50% inhibition concentration (IC50)
Procedure: . Cells were incubated with 20 ng/mL VEGF165 and co-treated with dasatinib or Di-DAS at various concentrations for 48 h. FIG. 4B VEGF-stimulated HUVEC tube formation assay of Di-DAS-VER. […] FIG. 4C Quantitative HUVEC cell viability of Di-DAS-VER by MTT assay. […] MTT assay was performed at 24 h after treatment. […] . DAS: dasatinib; VER: verteporfin.
We tested the in vitro anti-angiogenic activity of DAS and Di-DAS in VEGF-stimulated human umbilical vein endothelial cells (HUVECs). […] . To assess therapeutic efficacy of combined anti-VEGF and PDT treatment, thiazolyl blue tetrazolium bromide (MTT) assay was conducted for measuring VEGF-stimulated HUVEC cell viability.

VEGF-stimulated HUVECs = assay: HUVEC scratch-wound healing assay; settings: DAS group, irradiation not stated, 20 h

| Molecule | inhibition of VEGF-induced HUVEC differentiation and formation of vessel-like tubes [1] | IC50 [2] | scratch wound recovery (VEGF-stimulated HUVECs) |
| --- | --- | --- | --- |
| verteporfin | could not inhibit | – | – |
| Cc1nc(Nc2ncc(C(=O)Nc3c(C)cccc3Cl)s2)cc(N2CCN(CCO)CC2)n1 [DAS, dasatinib] | – | 910 nM | 11.35% |

— patent publication US20240374730A1, “PHOTOACTIVATABLE PRODRUG NANOPARTICLES FOR COMBINED ANTI-ANGIOGENESIS AND PHOTODYNAMIC THERAPY” (The University of Hong Kong, priority 2021, published 2024)
